Experimental data reported in patent US20250136607A1 (REGOR PHARMACEUTICALS, INC., priority 2021, published 2025).
Where two headings read alike, the source gives them in different places.

Experiments:
[1] = tested on: Citrullinated Histone H3 in dHL-60 cells (differentiated HL-60); test: dHL-60 Cit-H3 ELISA assay; assay type: cell-based, human; settings: Homo sapiens, HL-60, 3 h, stimulation with 25 μM A23187 for 3 h, read-out: Average IC50 Abs
Method: Cell culture: HL-60 cells were grown in IMDM+20% FBS+1% PS. The suspension cells were split into 1:5 with fresh media every 2-3 days to maintain cell density between 1×10^5 to 1×10^6 viable cells/mL. HL-60 cells differentiation: HL-60 cells were diluted to 1×10^5 cells/mL and differentiated into neutrophil-like cells with 100 mM DMF treatment for 72 hours in flask at 37° C., 5% CO2. dHL-60 Cells plating: • 1) HL-60 cells were collected, and the plate was centrifuged at 1000 rpm for 5 min. • 2) The HL-60 cells were diluted to 1.25×10^6 cells/mL and plated into a 96-well plate with 80 μL/well (i.e., 1×10^5/well). The plate was then incubated in the incubator (5% CO2, 37° C.) for 30 min to allow cells to adhere. Compound treatment: • 1) Preparation of compound serial dilution (source plate 500×, final DMSO concentration: 0.2%): briefly, compounds were dissolved in 100% DMSO to a concentration of 20 mM (the stock solution) and a 3-fold serial dilution with 8-point doses was performed. • 2) A 10× compound solution was pipetted up and down; and 10 μL/well of compounds were added into each well and incubated for 30 min. Stimulation with 25 μM A23187: • 1) A solution of A23187 (250 μM) in complete IMDM (IMDM+10% FBS+1% PS) containing 150 U/mL S7 Nuclease was prepared. The obtained solution was added 10 μL/well into each well and incubated for 3 h in the incubator (5% CO2, 37° C.). • 2) The dHL-60 cells treated with 10 μL/well complete IMDM without A23187 worked as negative control. Sample preparation: • 1) EDTA (0.5 M, 2 μL/well) were added to all the wells to stop the reaction. • 2) The plate was centrifuged at 1000 rpm for 5 min to collect supernatant. • 3) The supernatant was then diluted at least 1:2 before adding to the ELISA plate for citrullinated H3 analysis.
The standard was reconstituted with 2 mL of Assay buffer to 500 ng/mL. The reconstituted standard was relatively unstable at 4° C. and should be used within 3 hr after reconstitution.
• 1) 100 μL of the standards or diluted samples were added to the wells on the ELISA plate. • 2) The plate was covered with Cover Sheet and incubated for 2 h at room temperaturert on an orbital shaker.
On the day of the assay, the reagent was thawed at room temperaturert. For one plate, 1.2 mL of HRP Conjugate were diluted into 10.8 mL of assay buffer. A diluted HRP Conjugate was prepared shortly before use.
• 1) The wells were empties and rinsed four times with 1× wash buffer with 300 μL/well (Low speed). The plate was inverted between wash steps to empty the plate. After the last wash, the inverted plate was gently tapped on absorbent paper to remove the residual wash buffer. • 2) 100 μL of the HRP Conjugate working solution were added to each well of the plate. • 3) The plate was covered with cover sheet and incubated for 1 h at RT on an orbital shaker.
• 1) The wells were empties and rinsed four times with 1× wash buffer with 300 μL/well (low speed). The plate was inverted between wash steps to empty the plate. […] 100 uL of HRP STOP solution were added to each well of the plate.
• 1) Wipe the bottom of the plate with a clean tissue to remove fingerprints, dirt, etc. • 2) Read the plate at a wavelength of 450 nm.
The percent (%) inhibition at each concentration of compound was calculated based on and relative to the signal in the HPE and ZPE wells contained within each assay plate. The HPE wells worked as […], and the ZPE wells didn't contain any compound but rather DMSO (final concentration=0.1%) as […]. The concentrations and % inhibition values for tested compounds were plotted and the concentration of compound required for 50% inhibition (IC50) was determined with a Four-parameter logistic dose response equation. The endpoint value (IC50) for the reference peptide/compound was evaluated in each experiment as a quality control measure. If the endpoint value is within 3-fold of the expected value then the experiment is deemed acceptable. […]

[2] = target: Protein arginine deiminase 4 (PAD4) (Homo sapiens, UniProt Q9UM07); test: PAD4 ammonia release assay; assay type: biochemical; settings: for relative potency of separated isomers in the PAD4 biochemical assay: SFC-separated stereoisomer pairs
Sequence of Protein arginine deiminase 4 (PAD4) (Q9UM07 whole entry): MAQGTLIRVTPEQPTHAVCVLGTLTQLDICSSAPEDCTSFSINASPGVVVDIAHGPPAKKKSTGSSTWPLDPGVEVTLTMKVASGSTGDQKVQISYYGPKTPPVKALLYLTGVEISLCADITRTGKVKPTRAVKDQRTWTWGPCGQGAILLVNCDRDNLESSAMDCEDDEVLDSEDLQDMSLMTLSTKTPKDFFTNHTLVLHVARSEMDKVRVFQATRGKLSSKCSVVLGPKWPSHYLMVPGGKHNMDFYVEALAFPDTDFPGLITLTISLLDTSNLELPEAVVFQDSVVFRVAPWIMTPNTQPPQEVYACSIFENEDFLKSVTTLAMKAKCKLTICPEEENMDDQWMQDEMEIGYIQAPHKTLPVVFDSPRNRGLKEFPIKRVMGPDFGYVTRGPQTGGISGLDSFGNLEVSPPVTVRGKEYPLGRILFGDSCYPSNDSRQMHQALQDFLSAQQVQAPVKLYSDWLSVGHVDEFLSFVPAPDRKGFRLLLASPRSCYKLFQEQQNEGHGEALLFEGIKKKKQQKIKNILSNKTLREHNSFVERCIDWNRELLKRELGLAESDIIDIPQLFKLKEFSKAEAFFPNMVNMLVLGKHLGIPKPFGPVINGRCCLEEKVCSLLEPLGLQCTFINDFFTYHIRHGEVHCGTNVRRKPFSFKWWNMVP
How it was run: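 PAD4 (20 nM, 2× working solution) was preincubated with compound for 15 min at RT in 100 mM HEPES pH 8.0, 2 mM CaCl2, 50 mM NaCl, 0.1 mM TCEP, BSA at 1.25% DMSO. BAEE (600 μM, 2× mix) reacted 60 min, then OPA/DTT/EDTA detection for 120 min. IC50 came from a 4-parameter fit, normalized to 50 μM reference (100%) and DMSO (0%).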

[3] = PAD4 ammonia release assay, BAEE substrate, 60 min at RT, read-out: Average IC50 Abs

CCC1CN(CCC(C)(C)O)c2cccc3cc(-c4nc5cc(C(=O)N6C[C@H]7CC[C@@H]6[C@@H]7N)cc(F)c5n4C)n1c23 (stereo partly drawn) [Example 88, ((1R,4R,7R)-7-amino-2-azabicyclo[2.2.1]heptan-2-yl)(2-(3-ethyl-1-(3-hydroxy-3-methylbutyl)-2,3-dihydro-1H-pyrrolo[1,2,3-de]quinoxalin-5-yl)-7-fluoro-1-methyl-1H-benzo[d]imidazol-5-yl)methanone]
IC50 [1]: 0.1 to 0.5 µM
IC50 [2, 3]: 0.1 to 0.5 µM

CCn1cc(Cn2c(-c3cc4cccc5c4n3CCN5CC(F)(F)F)nc3cc(C(=O)N4C[C@H](N)C[C@@H](F)C4)cc(F)c32)cn1 [Example 47, ((3R,5R)-3-amino-5-fluoropiperidin-1-yl)(1-((1-ethyl-1H-pyrazol-4-yl)methyl)-7-fluoro-2-(1-(2,2,2-trifluoroethyl)-2,3-dihydro-1H-pyrrolo[1,2,3-de]quinoxalin-5-yl)-1H-benzo[d]imidazol-5-yl)methanone]
IC50 [1]: 0.5 to 5 µM
IC50 [2, 3]: 0.1 to 0.5 µM

Cn1c(-c2cc3cccc4c3n2[C@@H](C2CC2)CN4CCCO)nc2cc(C(=O)N3C[C@H]4CC[C@@H]3[C@@H]4N)cc(F)c21 (single isomer, unassigned) [Example 112]
IC50 [1]: ≤ 0.1 µM
IC50 [2, 3]: ≤ 0.1 µM

CC(C)C1CNc2cccc3cc(-c4nc5cc(C(=O)N6C[C@H]7CC[C@@H]6[C@@H]7N)cc(F)c5n4C)n1c23 (stereo partly drawn) [Example 104, ((1R,4R,7R)-7-amino-2-azabicyclo[2.2.1]heptan-2-yl)(7-fluoro-2-(3-isopropyl-2,3-dihydro-1H-pyrrolo[1,2,3-de]quinoxalin-5-yl)-1-methyl-1H-benzo[d]imidazol-5-yl)methanone]
IC50 [1]: ≤ 0.1 µM
IC50 ([2]; PAD4 activity comparison, read-out: PAD4 Ammonia assay IC50): 0.13 µM
IC50 [2, 3]: 0.1 to 0.5 µM

CCC1CN(CCCO)c2cccc3cc(-c4nc5cc(C(=O)N6C[C@H]7CC[C@@H]6[C@@H]7N)cc(F)c5n4CC4COC4)n1c23 (stereo partly drawn) [Example 92, ((1R,4R,7R)-7-amino-2-azabicyclo[2.2.1]heptan-2-yl)(2-(3-ethyl-1-(3-hydroxypropyl)-2,3-dihydro-1H-pyrrolo[1,2,3-de]quinoxalin-5-yl)-7-fluoro-1-(oxetan-3-ylmethyl)-1H-benzo[d]imidazol-5-yl)methanone]
IC50 [1]: ≤ 0.1 µM
IC50 [2, 3]: 0.1 to 0.5 µM

COc1cc(C(=O)N2C[C@H](N)C[C@@H](F)C2)cc2nc(-c3cc4cccc5c4n3CCN5CCCO)n(CC3CC3)c12 [Example 59, ((3R,5R)-3-amino-5-fluoropiperidin-1-yl)(1-(cyclopropylmethyl)-2-(1-(3-hydroxypropyl)-2,3-dihydro-1H-pyrrolo[1,2,3-de]quinoxalin-5-yl)-7-methoxy-1H-benzo[d]imidazol-5-yl)methanone]
IC50 [1]: 0.5 to 5 µM
IC50 [2, 3]: ≤ 0.1 µM

CCN1CCc2c(ccc3cc(-c4nc5cc(C(=O)N6C[C@H]7CC[C@@H]6[C@@H]7N)cc(F)c5n4C)n(CC4CC4)c23)C1 [Example 153, ((1R,4R,7R)-7-amino-2-azabicyclo[2.2.1]heptan-2-yl)(2-(1-(cyclopropylmethyl)-7-ethyl-6,7,8,9-tetrahydro-1H-pyrrolo[2,3-f]isoquinolin-2-yl)-7-fluoro-1-methyl-1H-benzo[d]imidazol-5-yl)methanone]
IC50 [1]: 0.1 to 0.5 µM
IC50 [2, 3]: 0.1 to 0.5 µM

CC[C@H]1CNc2cccc3cc(-c4nc5cc(C(=O)N6C[C@H]7CC[C@@H]6[C@@H]7N)cc(F)c5n4C)n1c23 [Example 74, ((1R,4R,7R)-7-amino-2-azabicyclo[2.2.1]heptan-2-yl)(2-((S)-3-ethyl-2,3-dihydro-1H-pyrrolo[1,2,3-de]quinoxalin-5-yl)-7-fluoro-1-methyl-1H-benzo[d]imidazol-5-yl)methanone]
IC50 [1]: ≤ 0.1 µM
IC50 [2, 3]: ≤ 0.1 µM
relative potency of separated isomers in the PAD4 biochemical assay [2]: more potent than Example 73

COc1cc(C(=O)N2CCC[C@@H](N)C2)cc2nc(-c3cc4cccc5c4n3CCN5CCCO)n(C)c12 [Example 12, (R)-(3-aminopiperidin-1-yl)(2-(1-(3-hydroxypropyl)-2,3-dihydro-1H-pyrrolo[1,2,3-de]quinoxalin-5-yl)-7-methoxy-1-methyl-1H-benzo[d]imidazol-5-yl)methanone]
IC50 [1]: 0.5 to 5 µM
IC50 [2, 3]: 0.1 to 0.5 µM

CCC1CN(CCCO)c2cccc3cc(-c4nc5cc(C(=O)N6C[C@H](N)C[C@@H](F)C6)cc(OC)c5n4C)n1c23 (stereo partly drawn) [Example 80, ((3R,5R)-3-amino-5-fluoropiperidin-1-yl)(2-(3-ethyl-1-(3-hydroxypropyl)-2,3-dihydro-1H-pyrrolo[1,2,3-de]quinoxalin-5-yl)-7-methoxy-1-methyl-1H-benzo[d]imidazol-5-yl)methanone]
IC50 [1]: 0.1 to 0.5 µM
IC50 [2, 3]: 0.1 to 0.5 µM

Cn1c(-c2cc3cccc4c3n2[C@@H](C2CC2)CN4)nc2cc(C(=O)N3C[C@H]4CC[C@@H]3[C@@H]4N)cc(F)c21 (single isomer, unassigned) [Example 110]
IC50 [1]: ≤ 0.1 µM
IC50 [2, 3]: ≤ 0.1 µM

Cn1c(-c2cc3ccc(S(C)(=O)=O)c4c3n2C(C2CC2)CN4)nc2cc(C(=O)N3C[C@H]4CC[C@@H]3[C@@H]4N)cc(F)c21 (stereo partly drawn) [Example 123, ((1R,4R,7R)-7-amino-2-azabicyclo[2.2.1]heptan-2-yl)(2-(3-cyclopropyl-9-(methylsulfonyl)-2,3-dihydro-1H-pyrrolo[1,2,3-de]quinoxalin-5-yl)-7-fluoro-1-methyl-1H-benzo[d]imidazol-5-yl)methanone]
IC50 [1]: ≤ 0.1 µM
IC50 [2, 3]: ≤ 0.1 µM

Cn1cc(Cn2c(-c3cc4cccc5c4n3CCN5CCCO)nc3cc(C(=O)N4C[C@@H](N)C[C@H](F)C4)cc(F)c32)cn1 [Example 46, ((3S,5S)-3-amino-5-fluoropiperidin-1-yl)(7-fluoro-2-(1-(3-hydroxypropyl)-2,3-dihydro-1H-pyrrolo[1,2,3-de]quinoxalin-5-yl)-1-((1-methyl-1H-pyrazol-4-yl)methyl)-1H-benzo[d]imidazol-5-yl)methanone]
IC50 [1]: 0.5 to 5 µM
IC50 [2, 3]: ≤ 0.1 µM

CC(C)[C@H]1CNc2cccc3cc(-c4nc5cc(C(=O)N6C[C@H]7CC[C@@H]6[C@@H]7N)cc(F)c5n4C)n1c23 [Example 106, ((1R,4R,7R)-7-amino-2-azabicyclo[2.2.1]heptan-2-yl)(7-fluoro-2-((S)-3-isopropyl-2,3-dihydro-1H-pyrrolo[1,2,3-de]quinoxalin-5-yl)-1-methyl-1H-benzo[d]imidazol-5-yl)methanone]
IC50 [1]: ≤ 0.1 µM
IC50 [2, 3]: 0.1 to 0.5 µM
relative potency of separated isomers in the PAD4 biochemical assay [2]: more potent than Example 105

CCC1CNc2cccc3cc(-c4nn5cc(C(=O)N6C[C@H]7CC[C@@H]6[C@@H]7N)cc(F)c5c4C)n1c23 (stereo partly drawn) [Example 140, [(1R,4R,7R)-7-amino-2-azabicyclo[2.2.1]heptan-2-yl]-[2-(11-ethyl-1,9-diazatricyclo[6.3.1.0^4,12]dodeca-2,4,6,8(12)-tetraen-2-yl)-4-fluoro-3-methyl-pyrazolo[1,5-a]pyridin-6-yl]methanone]
IC50 [1]: 0.5 to 5 µM
IC50 [2, 3]: 0.1 to 0.5 µM
